Patent publication EP0379367B1, “Method for the prevention of intrinsically aged skin with retinoids” (ORTHO PHARMACEUTICAL CORPORATION, priority 1989, dated 1990)
“Also recorded” adds a separate entry of the source.

Columns and labels:
[1] = tested on: Female Albino hairless mice (Skh-hairless-1); settings: mouse, in vivo
Procedure: (§1) Lifetime Application of all-trans-Retinoic Acid to Albino Hairless Mice.
(§2) Female Albino hairless mice (Skh-hairless-1), age 8-11 weeks, were treated topically, three times a week, for the remainder of their life span as follows:
(§3) The mice were examined monthly for skin changes and possible weight loss that might indicate a toxic effect.
(§4) Toward the end of the study, mice were photographed to show the condition of the skin. A few mice were sacrificed at about 70, 80 and 90 weeks, with dorsal skin taken for histochemical evaluation. The remainder were allowed to live out their life span which ranged from 91-106 weeks and were biopsied when moribound, if possible. The histochemical stains were: H&E for general histology, Luna's for elastic fibers, Van Gieson's for collagen and Mowry's for proteoglycans.

[2] = tested on: Female Albino hairless mice (Skh-hairless-1); assay: Lifetime topical application of all-trans-retinoic acid to albino hairless mice (toxicity, clinical and histochemical skin observations); settings: for clinical observations: condition of the skin: lifetime application, mice 91-106 weeks of age at photograph (Figure 1), versus vehicle and untreated controls
Procedure: as §1, §2, §3, §4

CC1=C(/C=C/C(C)=C/C=C/C(C)=C/C(=O)O)C(C)(C)CCC1 [all-trans-retinoic acid]
adverse or unusual effects at biopsy and necropsy [1]: no indication that the mice suffered any adverse or unusual effects
weights of mice [1]: no difference in the weights
mortality ([2]; 0.025% (100 µl) topically, three times a week, remainder of life span, compared with cream vehicle and untreated groups): no difference in mortality
clinical observations: condition of the skin [2]: thinner, pinker, more uniform skin than the controls
clinical observations: condition of the skin ([2]; listed as All-trans-retinoic acid): thinner, pinker, more uniform skin than controls or untreated mice
collagen in the repair zones (Van Gieson's stain) ([2]; lifetime treatment): stained mainly as normal, mature collagen
dermal inflammation (H&E) ([2]; lifetime treatment): mild inflammatory infiltrate in the mid-dermis
epidermal cell morphology (H&E) ([2]; lifetime treatment): plump, cytologically normal and have abundant cytoplasm; also recorded: plump, cytologically normal and had an abundant cytoplasm
granular layer of epidermis (H&E) ([2]; lifetime treatment): about 4 cell layers
elastic fibers (Luna's stain) ([2]; lifetime treatment (Figure 4)): increased amount of new elastic fibers
glycosamino-/proteoglycan deposits at the dermal-epidermal junction (Mowry's stain) ([2]; lifetime treatment, compared with the other groups): Fewer deposits
epidermis (H&E), thickness ([2]; lifetime treatment, hyperplastic, controls had the usual 2-4 compressed-looking cells): about 8 cell layers
new collagen (H&E; Luna's stain) ([2]; lifetime treatment, no repair areas in controls): Areas of new collagen were apparent
granular layer of epidermis (H&E, Figure 4) ([2]; lifetime treatment, sample from a mouse 95 weeks of age): approximately 4 cells
dermal glycosaminoglycans or proteoglycans (Mowry's stain) ([2]; lifetime treatment, stated for all groups): little or no increase
blood vessels (H&E) ([2]; lifetime treatment, unlike in the controls): abundance of new blood vessels; also recorded: readily seen
toxic effects ([2]; treatment over a lifetime): no detectable toxic effects
